Reference: EP0377642B1, “HERBICIDES FOR WEED CONTROL IN RICE” (E.I. DU PONT DE NEMOURS AND COMPANY, priority 1987, dated 1989)

Tests used:
CI = experiment: Herbicidal efficacy in relation to application timing in Indonesia (Table 5); assay type: in vivo
Description: (§1) Methyl 2-[[[[(4-methoxy-6-methyl-1,3,5-triazin-2-yl)amino]carbonyl]amino]sulfonyl]benzoate (Compound 1) and mixtures thereof with other compounds were applied as a spray (using a hand sprayer) to rice (either transplanted or direct seeded) in several rice growing areas in Southeast Asia and in the U.S. Tables 1-28 contain the results of these tests and clearly exemplify the utility of this invention. The details of each application are included in the appropriate table. [drawing 2]

MV = experiment: as above; assay type: in vivo
Description: as §1

COC(=O)c1ccccc1S(=O)(=O)NC(=O)Nc1nc(C)nc(OC)n1 [Compound 1, Methyl 2-[[[[(4-methoxy-6-methyl-1,3,5-triazin-2-yl)amino]carbonyl]amino]sulfonyl]benzoate]
% CONTROL CI (CI; 3 WAT, 2 GAI/HA, evaluation 1): 0% | % CONTROL CI (CI; 3 WAT, 2 GAI/HA, evaluation 2): 0% | % CONTROL CI (CI; 3 WAT, 2 GAI/HA, evaluation 3): 0% | % CONTROL CI (CI; 3 WAT, 3 GAI/HA, evaluation 1): 20% | % CONTROL CI (CI; 3 WAT, 3 GAI/HA, evaluation 2): 0% | % CONTROL CI (CI; 3 WAT, 3 GAI/HA, evaluation 3): 0% | % CONTROL CI (CI; 3 WAT, 4 GAI/HA, evaluation 1): 20% | % CONTROL CI (CI; 3 WAT, 4 GAI/HA, evaluation 2): 0% | % CONTROL CI (CI; 3 WAT, 4 GAI/HA, evaluation 3): 0% | % CONTROL CI (CI; 3 WAT, 6 GAI/HA, evaluation 1): 20% | % CONTROL CI (CI; 3 WAT, 6 GAI/HA, evaluation 2): 0% | % CONTROL CI (CI; 3 WAT, 6 GAI/HA, evaluation 3): 0% | % CONTROL CI (CI; 3 WAT, 8 GAI/HA, evaluation 1): 20% | % CONTROL CI (CI; 3 WAT, 8 GAI/HA, evaluation 2): 0% | % CONTROL CI (CI; 3 WAT, 8 GAI/HA, evaluation 3): 0% | % CONTROL CI (CI; 4 WAT, 2 GAI/HA, evaluation 1): 0% | % CONTROL CI (CI; 4 WAT, 2 GAI/HA, evaluation 2): 0% | % CONTROL CI (CI; 4 WAT, 2 GAI/HA, evaluation 3): 0% | % CONTROL CI (CI; 4 WAT, 3 GAI/HA, evaluation 1): 0% | % CONTROL CI (CI; 4 WAT, 3 GAI/HA, evaluation 2): 0% | % CONTROL CI (CI; 4 WAT, 3 GAI/HA, evaluation 3): 0% | % CONTROL CI (CI; 4 WAT, 4 GAI/HA, evaluation 1): 20% | % CONTROL CI (CI; 4 WAT, 4 GAI/HA, evaluation 2): 20% | % CONTROL CI (CI; 4 WAT, 4 GAI/HA, evaluation 3): 0% | % CONTROL CI (CI; 4 WAT, 6 GAI/HA, evaluation 1): 20% | % CONTROL CI (CI; 4 WAT, 6 GAI/HA, evaluation 2): 20% | % CONTROL CI (CI; 4 WAT, 6 GAI/HA, evaluation 3): 0% | % CONTROL CI (CI; 4 WAT, 8 GAI/HA, evaluation 1): 20% | % CONTROL CI (CI; 4 WAT, 8 GAI/HA, evaluation 2): 20% | % CONTROL CI (CI; 4 WAT, 8 GAI/HA, evaluation 3): 0% | % CONTROL CI (CI; 5 WAT, 2 GAI/HA, evaluation 1): 0% | % CONTROL CI (CI; 5 WAT, 2 GAI/HA, evaluation 2): 0% | % CONTROL CI (CI; 5 WAT, 2 GAI/HA, evaluation 3): 0% | % CONTROL CI (CI; 5 WAT, 3 GAI/HA, evaluation 1): 50% | % CONTROL CI (CI; 5 WAT, 3 GAI/HA, evaluation 2): 20% | % CONTROL CI (CI; 5 WAT, 3 GAI/HA, evaluation 3): 0% | % CONTROL CI (CI; 5 WAT, 4 GAI/HA, evaluation 1): 60% | % CONTROL CI (CI; 5 WAT, 4 GAI/HA, evaluation 2): 30% | % CONTROL CI (CI; 5 WAT, 4 GAI/HA, evaluation 3): 0% | % CONTROL CI (CI; 5 WAT, 6 GAI/HA, evaluation 1): 60% | % CONTROL CI (CI; 5 WAT, 6 GAI/HA, evaluation 2): 40% | % CONTROL CI (CI; 5 WAT, 6 GAI/HA, evaluation 3): 0% | % CONTROL CI (CI; 5 WAT, 8 GAI/HA, evaluation 1): 60% | % CONTROL CI (CI; 5 WAT, 8 GAI/HA, evaluation 2): 60% | % CONTROL CI (CI; 5 WAT, 8 GAI/HA, evaluation 3): 30% | % CONTROL MV (MV; 3 WAT, 2 GAI/HA, evaluation 1): 80% | % CONTROL MV (MV; 3 WAT, 2 GAI/HA, evaluation 2): 80% | % CONTROL MV (MV; 3 WAT, 2 GAI/HA, evaluation 3): 100% | % CONTROL MV (MV; 3 WAT, 3 GAI/HA, evaluation 1): 80% | % CONTROL MV (MV; 3 WAT, 3 GAI/HA, evaluation 2): 100% | % CONTROL MV (MV; 3 WAT, 3 GAI/HA, evaluation 3): 100% | % CONTROL MV (MV; 3 WAT, 4 GAI/HA, evaluation 1): 100% | % CONTROL MV (MV; 3 WAT, 4 GAI/HA, evaluation 2): 100% | % CONTROL MV (MV; 3 WAT, 4 GAI/HA, evaluation 3): 100% | % CONTROL MV (MV; 3 WAT, 6 GAI/HA, evaluation 1): 80% | % CONTROL MV (MV; 3 WAT, 6 GAI/HA, evaluation 2): 100% | % CONTROL MV (MV; 3 WAT, 6 GAI/HA, evaluation 3): 100% | % CONTROL MV (MV; 3 WAT, 8 GAI/HA, evaluation 1): 100% | % CONTROL MV (MV; 3 WAT, 8 GAI/HA, evaluation 2): 100% | % CONTROL MV (MV; 3 WAT, 8 GAI/HA, evaluation 3): 100% | % CONTROL MV (MV; 4 WAT, 2 GAI/HA, evaluation 1): 80% | % CONTROL MV (MV; 4 WAT, 2 GAI/HA, evaluation 2): 100% | % CONTROL MV (MV; 4 WAT, 2 GAI/HA, evaluation 3): 100% | % CONTROL MV (MV; 4 WAT, 3 GAI/HA, evaluation 1): 80% | % CONTROL MV (MV; 4 WAT, 3 GAI/HA, evaluation 2): 100% | % CONTROL MV (MV; 4 WAT, 3 GAI/HA, evaluation 3): 100% | % CONTROL MV (MV; 4 WAT, 4 GAI/HA, evaluation 1): 80% | % CONTROL MV (MV; 4 WAT, 4 GAI/HA, evaluation 2): 100% | % CONTROL MV (MV; 4 WAT, 4 GAI/HA, evaluation 3): 100% | % CONTROL MV (MV; 4 WAT, 6 GAI/HA, evaluation 1): 80% | % CONTROL MV (MV; 4 WAT, 6 GAI/HA, evaluation 2): 100% | % CONTROL MV (MV; 4 WAT, 6 GAI/HA, evaluation 3): 100% | % CONTROL MV (MV; 4 WAT, 8 GAI/HA, evaluation 1): 100% | % CONTROL MV (MV; 4 WAT, 8 GAI/HA, evaluation 2): 100% | % CONTROL MV (MV; 4 WAT, 8 GAI/HA, evaluation 3): 100% | % CONTROL MV (MV; 5 WAT, 2 GAI/HA, evaluation 1): 80% | % CONTROL MV (MV; 5 WAT, 2 GAI/HA, evaluation 2): 80% | % CONTROL MV (MV; 5 WAT, 2 GAI/HA, evaluation 3): 80% | % CONTROL MV (MV; 5 WAT, 3 GAI/HA, evaluation 1): 80% | % CONTROL MV (MV; 5 WAT, 3 GAI/HA, evaluation 2): 100%
